Measured values: patent publication US9572881B2, “Halogenated compounds for photodynamic therapy” (Nanoquantum Sciences, Inc., priority 2012, dated 2017)
Several values for one entry are separate records, joined by “and”; a condition that tells them apart may be missing. Equal values may be shown once.

Experiments:
[1] = Fluorescence emission spectra and quantum yield relative to HITC; type: physicochemical; details: for QY (fluor): given as fraction in synthesis example
Procedure: Fluorescence spectra for the dyes were determined at RT on a Varian Cary Eclipse spectrofluorometer in a standard 1-cm quartz cell. The spectra were corrected. All concentrations of the fluorophores were chosen to be between 0.2 and 1.0 μM.
For the determination of the quantum yields (QY), the integrated relative intensities of the dyes or dye-protein conjugates, were measured against HITC as the reference. All absorbances at excitation wavelength (λexc) were in the range of 0.04-0.08 (when measured in a 1-cm cell).
The QY of each sample was independently measured 3-4 times and the average value was calculated.

[2] = Absorption spectra and extinction coefficients of dyes; type: physicochemical; details: for Extinction coefficient ε at λmax (abs): synthesis example, no unit
Procedure: Absorption spectra were measured at RT on a Perking Elmer Lambda 35 UV/Vis spectrophotometer. […] The stock solution was diluted (1:2000) and the absorbance was measured in a 5-cm standard quartz cell. All dye concentrations were in the range of 1.1 to 2.0×10^−7 M. The extinction coefficients were calculated according to Lambert-Beer's law.

[3] = Singlet oxygen quantum yield, DPBF scavenger method in ethanol; type: physicochemical; details: measured in ethanol, 650 nm laser, ICG reference
Procedure: The modified relative photochemical method of Spiller W. et al. (J. Porphyrins Phthalocyanines, 1998, V. 2, 145-158) utilizing 1,3-diphenylisobenzofuran (DPBF) as a chemical scavenger was used to determine the photosensitiser's singlet oxygen quantum yields (ΦΔ) in ethanol solutions.
Ethanolic solutions containing DPBF (10 μM) and sensitizers with absorbance (optical density) in a range between 0.09 and 0.10 at 650 nm (measured in a standard 1-cm quartz cell) were prepared. Samples were saturated with oxygen by bubbling. Next, 3 mL of the solution were placed in a 1-cm cell equipped with a stirring bar and a 10 mW, 650 nm diode laser was hermetically attached to the top of cuvette so as to avoid solvent evaporation and to provide a light beam direction from top to bottom of the cuvette. The solution in the cuvette was irradiated with the diode laser under continuous stirring for a certain time. DPBF consumption was determined by monitoring DPBF bleaching over irradiation time using absorption spectroscopy at 411 nm (extinction coefficient 22,000 M^−1 cm^−1). At least six absorption spectra were obtained for each solution at different irradiation times until the DPBF absorbance reduced at least to the 10% of the initial absorbance.
The decrease of DPBF absorbance at 411 nm versus irradiation time was plotted for each photosensitizer and the DPBF degradation rate constant (K) characterizing the reaction rate of singlet oxygen with DPBF in presence of a sensitizer was calculated.

bovine erythrocytes = assay: Phototoxicity (glow lamp) and dark toxicity by hemolysis of bovine erythrocytes; type: cell-based; details: Dark
Procedure: (§1) Bovine erythrocytes were isolated from blood plasma stored with sodium citrate. 1 mL of bovine blood was treated at centrifuge (3,000 rpm) for 10 min to precipitate erythrocytes. The supernatant was decanted, 2 mL of physiological solution were added, treated and erythrocytes were precipitated with centrifuge. The washing procedure was repeated for 3 times and the precipitated erythrocytes were collected. […] Cells were dye-incubated for 45 minutes at 37° C. in the dark. Then the examined suspensions of cells (erythrocytes) were placed at a distance of 30-cm from a 250 W glow red-lamp equipped with a water-based heat filter and irradiated with occasional stirring. After irradiation, cells were stored at 4° C. for 15 hours. […] The hemolysis level (percentage of hemolyzed cells) was determined as the ratio of absorbances of the supernatant and a solution of 100% hemolysed cells. The 100% hemolysis was taken as the value obtained when the given number of erythrocytes were suspended in distilled water.

[4] = as above; type: cell-based; details: bovine, bovine erythrocytes, Glow Lamp
Procedure: as §1

| Compound | Emission max. ([1]; Methanol) | Fluorescence quantum yield ([1]; Methanol) | Absorption max. ([2]; Methanol) | Emission max. ([1]; Water) | Absorption max. ([2]; Water) | further results |
| --- | --- | --- | --- | --- | --- | --- |
| 1-(5-carboxypentyl)-2-[7-(4,6-diiodo-1,3,3-trimethyl-3H-2-indoliumyl)-2,4,6-heptatrienylidene]-3,3-dimethyl-5-indolinesulfonate [I-73] | 779 nm | 41% | 748 nm | – | – | QY (fluor) ([1]; methanol): 0.41 |
| C[N+]1=C(C=CC=CC=CC=C2N(CCCCS(=O)(=O)[O-])c3ccc(S(=O)(=O)O)cc3C2(C)C)C(CCCCCC(=O)O)c2c(I)cc(I)cc21 (stereo not drawn) [I-83, 4-(2-7-[3-(5-carboxypentyl)-4,6-diiodo-1-methyl-3H-2-indoliumyl]-2,4,6-heptatrienylidene-3,3-dimethyl-5-sulfo-2,3-dihydro-1H-1-indolyl)-1-butanesulfonate] | 779 nm | 43% | 750 nm | 776 nm | 748 nm | Emission max. ([1]; Conjugates with IgG (antibody)): 776 nm; Fluorescence quantum yield ([1]; Water): 22%; Absorption max. ([2]; Conjugates with IgG (antibody)): 755 nm |
| CN1/C(=C\C=C2/CCCC(/C=C/C3=[N+](C)c4cc(I)c(I)c(I)c4C3(C)C)=C2Cl)C(C)(C)c2c1cc(I)c(I)c2I.[I-] [I-96] | 808 nm | 21% | 787 nm | – | – | – |
| CN1\C(=C/C=C/C=C/C=C/C2=[N+](C)c3cc(I)cc(I)c3C2(C)C)C(C)(C)c2c(I)cc(I)cc21.[I-] [I-71, 2-[7-(4,6-diiodo-1,3,3-trimethyl-2,3-dihydro-1H-2-indolyliden)-1,3,5-heptatrienyl]-4,6-diiodo-1,3,3-trimethyl-3H-indolium iodide] | 773 nm | 46% | 745 nm | – | – | QY (fluor) ([1]; methanol): 0.46; Singlet oxygen generation quantum yield ΦΔ [3]: 19%; Hemolysis (bovine erythrocytes; 5 μM): 2%; Hemolysis (bovine erythrocytes; 50 μM): 30%; hemolysis at 60 min, 0.1 µM ([4]; 0.1 μM, exposure 60 min): 21%; hemolysis at 30 min, 0.5 µM ([4]; 0.5 μM, exposure 30 min): 75% |
| CN1\C(=C/C=C/C=C/C=C/C2=[N+](C)c3cc(I)cc(I)c3C2(C)CCCCCC(=O)O)C(C)(CCCCCC(=O)O)c2c(I)cc(I)cc21.[I-] (stereo not drawn) [I-79, 3-(5-carboxypentyl)-2-7-[3-(5-carboxypentyl)-4,6-diiodo-1,3-dimethyl-2,3-dihydro-1H-2-indolyliden]-1,3,5-heptatrienyl-4,6-diiodo-1,3-dimethyl-3H-indolium iodide] | – | – | – | – | – | Absorption max. ([2]; Chloroform): 763 nm; Hemolysis (bovine erythrocytes; 50 μM): 4%; hemolysis at 60 min, 0.5 µM ([4]; 0.5 μM, exposure 60 min): 75%; hemolysis at 30 min, 1 µM ([4]; 1 μM, exposure 30 min): 80% |
| CC1(CCCCCC(=O)NCCS(=O)(=O)O)C(/C=C/C=C/C=C/C=C2\N(CCCS(=O)(=O)O)c3cc(I)c(I)c(I)c3C2(C)CCCCCC(=O)NCCS(=O)(=O)O)=[N+](CCCS(=O)(=O)[O-])c2cc(I)c(I)c(I)c21 (stereo not drawn) [I-92] | 794 nm | 39% | 764 nm | – | – | – |
| 3-(5-carboxypentyl)-2-[7-(4,6-diiodo-1,3,3-trimethyl-2,3-dihydro-1H-2-indolyliden)-1,3,5-heptatrienyl]-1,1-dimethyl-6-sulfo-8-(1H-benzo[e]indolium)sulfo-nate [I-74] | 793 nm | 22% | 760 nm | – | – | QY (fluor) ([1]; methanol): 0.22 |
| CC(C)(C)C1=CC(=C/C=C/C=C/C=C/C2=[N+](CCCS(=O)(=O)[O-])c3ccc(I)cc3C2(C)CCCCCC(=O)O)C=C(C(C)(C)C)O1 (stereo not drawn) [I-68] | 826 nm | 6% | 794 nm | – | – | – |
| CC1(CCCCCC(=O)O)C(/C=C/C=C/C=C/C=C2\N(CCCCS(=O)(=O)O)c3ccc(S(=O)(=O)[O-])cc3C2(C)CCCCS(=O)(=O)O)=[N+](CCCS(=O)(=O)O)c2cc(I)c(I)c(I)c21 (stereo not drawn) [I-84, 4-[2-7-[3-(5-carboxypentyl)-4,5,6-triiodo-3-methyl-1-(3-sulfopro-pyl)-2,3-dihydro-1H-2-indolyliden]-1,3,5-heptatrienyl-3-methyl-5-sulfo-3-(4-sulfobutyl)-3H-1-indoliumyl]-1-butanesulfonate] | – | – | – | 787 nm | 758 nm | Emission max. ([1]; Conjugates with IgG (antibody)): 787 nm; Emission max. ([1]; Phosphate buffer (pH 7.4)): 787 nm; Fluorescence quantum yield ([1]; Water (PB, pH 7.4)): 20%; QY (fluor) ([1]; water): 0.20; Absorption max. ([2]; Conjugates with IgG (antibody)): 762 nm; Absorption max. ([2]; Phosphate buffer (pH 7.4)): 758 nm; Extinction coefficient ε at λmax (abs) ([2]; water): 270,000 |
| CN1/C(=C\C=C2/CCCC(/C=C/C3=[N+](C)c4ccc(I)cc4C3(C)C)=C2Cl)C(C)(C)c2cc(I)ccc21.[I-] [I-56] | 806 nm | 16% | 784 nm | – | – | – |
| CN(C)c1ccc(SC2=C(/C=C/C3=[N+](C)c4ccc(I)cc4C3(C)C)CCC/C2=C\C=C2/N(C)c3ccc(I)cc3C2(C)C)cc1.[I-] [I-61] | 812 nm | 14% | 792 nm | – | – | – |
| C[N+]1=C(C=CC=CC=CC=C2N(CCCCCC(=O)NCCOCCOCCOCCC(=O)O)c3ccc(S(=O)(=O)[O-])cc3C2(C)CCCCS(=O)(=O)O)C(C)(C)c2c(I)cc(I)cc21 (stereo not drawn) [I-89, 1-[5-(2-2-[2-(2-carboxyethoxy)ethoxy]ethoxyethylcarbamoyl)-pentyl]-2-[7-(4,6-diiodo-1,3,3-trimethyl-3H-2-indoliumyl)-2,4,6-heptatrienylidene]-3-methyl-3-(4-sulfobutyl)-5-indolinesulfonate] | – | – | – | 777 nm | 750 nm | Fluorescence quantum yield ([1]; Water): 21.5%; Singlet oxygen generation quantum yield ΦΔ [3]: 13%; Extinction Coefficient ([2]; Water): 270,000 M^−1cm^−1 |
| 1-(5-carboxypentyl)-2-[7-(4,6-diiodo-1,3,3-trimethyl-3H-2-indoliumyl)-2,4,6-heptatrienylidene]-3-methyl-3-(4-sulfobutyl)-5-indolinesulfonate [I-72] | 780 nm | 41% | 750 nm | 777 nm | 750 nm | Fluorescence quantum yield ([1]; Water): 21%; QY (fluor) ([1]; methanol): 0.41; QY (fluor) ([1]; water): 0.21; Singlet oxygen generation quantum yield ΦΔ [3]: 12%; Extinction Coefficient ([2]; Water): 270,000 M^−1cm^−1; Extinction coefficient ε at λmax (abs) ([2]; water): 270,000 |
| CC1(CCCCCC(=O)N2CC[N+]3(CC2)CC[N+]2(CCNCC2)CC3)C(/C=C/C=C/C=C/C=C2\N(CCCS(=O)(=O)[O-])c3cc(I)c(I)c(I)c3C2(C)CCCCCC(=O)N2CC[N+]3(CC2)CC[N+]2(CCNCC2)CC3)=[N+](CCCS(=O)(=O)[O-])c2cc(I)c(I)c(I)c21.[Cl-].[Cl-].[Cl-] (stereo not drawn) [I-91] | 795 nm | 26% | 766 nm | – | – | – |
| CN1\C(=C/C=C/C=C/C=C/C2=[N+](C)c3cc(I)c(I)c(I)c3C2(C)CCCCCC(=O)N2CC[N+]3(CC2)CC[N+]2(CCNCC2)CC3)C(C)(CCCCCC(=O)N2CC[N+]3(CC2)CC[N+]2(CCNCC2)CC3)c2c1cc(I)c(I)c2I.[Cl-].[Cl-].[Cl-].[Cl-].[Cl-] (stereo not drawn) [I-94] | 788 nm | 38% | 759 nm | 782 nm | 695 nm and 756 nm | Fluorescence quantum yield ([1]; Water): 1.8% |
| CN1\C(=C/C=C/C=C/C=C/C2=[N+](C)c3cc(Br)c(Br)c(Br)c3C2(C)C)C(C)(C)c2c1cc(Br)c(Br)c2Br.[I-] [I-88, 4,5,6-tribromo-1,3,3-trimethyl-2-[7-(4,5,6-tribromo-1,3,3-trimethyl-2,3-dihydro-1H-2-indolyliden)-1,3,5-heptatrienyl]-3H-indolium iodide] | 778 nm | 50% | 748 nm | – | – | QY (fluor) ([1]; methanol): 0.50; Singlet oxygen generation quantum yield ΦΔ [3]: 11%; Extinction Coefficient ([2]; Methanol): 240,000 M^−1cm^−1; Extinction coefficient ε at λmax (abs) ([2]; methanol): 240,000 |
| CN1\C(=C/C=C/C=C/C=C/C2=[N+](C)c3cc(I)c(I)c(I)c3C2(C)CCCCCC(=O)O)C(C)(CCCCCC(=O)O)c2c1cc(I)c(I)c2I.[I-] (stereo not drawn) [I-93] | 783 nm | 47% | 755 nm | n.f. | 783 nm | – |
